Laboratory results published in US7045536B2, “Compound having anti-viral activity” (Industrial Technology Research Institute, priority 2003, dated 2006).

Assays:
RD cells = assay: Toxicity test; format: cell-based; details: 3-4 days, crystal violet OD570nm
Experimental: In this embodiment, rhabdomyosarcoma (RD) cells obtained from the Virology Lab of Chang Gung Memorial Hospital are cultured in DMEM (Gibco) containing 10% fetal bovine serum and placed in 5% CO2, 37° C. incubator. In successive culture, the cells are rinsed twice with 1× PBS and then added with proper amount of 0.25% trypsin-EDTA (Gibco) for cell treatment. After the cells drop off from the surface of culture dish, add DMBM medium containing 10% fetal bovine serum to disperse the cells evenly in the culture dishes. Place the dishes into 5% CO2, 37° C. incubator to continue the culturing.
In this embodiment, cultured cells from Embodiment 3 are cultured in 96-well plate. After the cells are mixed with the tested compound for one hour, add DMEM containing 2% fetal bovine serum, and place the medium in 5% CO2, 35° C. incubator for 3–4 days. To read the test result, add 5% formalin to fixate for 1–2 hours and dye with 0.1% crystal violet (J. T. Baker) for 2–3 minutes. Rinse with water and measure OD570nm values.

enterovirus type 71 = assay: Neutralization test; format: cell-based, enterovirus 71/Tw/2231/98; details: concentration of 10 mg/ml; RD cells, crystal violet OD570nm
Experimental: In this embodiment, enterovirus 71/Tw/2231/98 obtained from Virology Lab of Chang Gung Memorial Hospital is diluted with fetal bovine serum free culture medium. Culture the RD cells in DMEM containing 10% fetal bovine serum. When the cells are 90% cultured, wash with 1×PBC once and add the aforesaid diluted virus fluid into the culture medium. Place the medium in the 5% CO2, 35° C. incubator for inoculation for one hour and then add DMEM containing 2% fetal bovine serum. Place the medium in 5% CO2, 35° C. incubator. When over 95% of the cells become round and drop off, collect the supernatant. After centrifuge, freezing and thawing, refrigerate the virus supernatant under −80° C.
In this embodiment, cultured cells from Embodiment 3 are cultured in 96-well plate. After mixing fixed-quantity of virus fluid with the tested compound, add in culture medium for inoculation for one hour, and then add in DMEM containing 2% fetal bovine serum. Place the medium in 5% CO2, 35° C. incubator for 3–4 days. To read the test result, add 5% formalin to fixate for 1–2 hours and dye with 0.1% crystal violet for 2–3 minutes. Rinse with water and measure OD570nm values.

Row | Compound | LC50 (RD cells) [µg/mL] | inhibitory effect on enterovirus type 71 (enterovirus type 71) [%]
1 | C[n+]1ccn(CC(O)Cn2cc[n+](C)c2)c1.[Br-].[Br-] [dibromo 1,1′-glyceryl-bis (3-methyl-1H-imidazole)] | 8400 | 32
2 | OC(C[n+]1ccccc1)C[n+]1ccccc1.[Br-].[Br-] [dibromo 1,1′-glyceryl-bispyridine] | 9200 | 30
